Data taken from US20250099493A1, “PHOSPHONATES AS INHIBITORS OF ENPP1 AND CDNP” (STINGRAY THERAPEUTICS, INC., priority 2020, published 2025).
Like-named read-outs stand apart in the source and are kept apart here.

Assays:
Recombinant CdnP Protein = Recombinant CdnP Protein (Mycobacterium tuberculosis (strain ATCC 25618 / H37Rv), UniProt P71615); assay: CdnP HPLC Assay with C-DI-AMP Substrate; format: biochemical, M. tuberculosis; details: HPLC AMP peak area, read-out: Inhibition percentage of CdnP; for inhibition at 100 µM: 100 μM compound
Sequence of Recombinant CdnP Protein (P71615 whole entry, looked up): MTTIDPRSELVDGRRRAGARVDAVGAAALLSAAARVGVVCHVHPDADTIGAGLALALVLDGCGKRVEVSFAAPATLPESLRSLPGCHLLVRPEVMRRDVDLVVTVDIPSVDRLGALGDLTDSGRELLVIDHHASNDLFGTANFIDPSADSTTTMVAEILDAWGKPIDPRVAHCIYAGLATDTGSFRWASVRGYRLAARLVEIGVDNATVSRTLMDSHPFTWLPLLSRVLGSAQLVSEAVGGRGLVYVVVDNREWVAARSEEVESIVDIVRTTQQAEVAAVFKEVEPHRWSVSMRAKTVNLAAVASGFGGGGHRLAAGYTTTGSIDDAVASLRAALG

[1] = target: Recombinant Human ENPP-1 Protein (Homo sapiens (Human), UniProt P22413); assay: ENPP1 Inhibition Assay; format: biochemical
Sequence of Recombinant Human ENPP-1 Protein (P22413 99-925): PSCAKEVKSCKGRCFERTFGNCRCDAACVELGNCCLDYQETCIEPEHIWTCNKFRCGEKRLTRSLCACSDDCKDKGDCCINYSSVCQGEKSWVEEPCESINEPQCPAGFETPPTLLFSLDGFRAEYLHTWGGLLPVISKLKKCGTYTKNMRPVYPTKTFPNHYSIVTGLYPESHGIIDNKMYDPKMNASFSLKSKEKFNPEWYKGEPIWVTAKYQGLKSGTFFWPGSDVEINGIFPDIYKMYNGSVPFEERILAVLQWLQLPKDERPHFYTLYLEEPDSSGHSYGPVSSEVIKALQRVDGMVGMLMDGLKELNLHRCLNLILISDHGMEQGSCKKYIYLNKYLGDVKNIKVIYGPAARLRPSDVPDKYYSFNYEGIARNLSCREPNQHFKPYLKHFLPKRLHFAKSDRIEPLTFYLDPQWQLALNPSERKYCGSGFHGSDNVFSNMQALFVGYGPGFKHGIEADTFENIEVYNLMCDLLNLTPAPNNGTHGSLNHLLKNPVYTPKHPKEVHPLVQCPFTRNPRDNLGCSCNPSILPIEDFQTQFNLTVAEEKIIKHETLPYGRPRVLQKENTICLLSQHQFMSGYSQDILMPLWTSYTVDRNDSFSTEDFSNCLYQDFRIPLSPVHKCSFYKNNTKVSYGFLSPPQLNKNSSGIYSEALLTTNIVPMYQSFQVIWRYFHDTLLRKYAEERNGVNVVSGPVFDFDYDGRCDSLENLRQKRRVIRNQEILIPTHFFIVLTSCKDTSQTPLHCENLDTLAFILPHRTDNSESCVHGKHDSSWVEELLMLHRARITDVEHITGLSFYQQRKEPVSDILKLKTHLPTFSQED
Method: Assay Buffer: 1 mM CaCl2), 0.2 mM ZnCl2, 50 mM Tris, pH 9.0. Substrate: 8 mM Thymidine 5′-monophosphate p-nitrophenol ester sodium salt (Sigma Cat #T4510). Enzyme: […] Recombinant Human ENPP-1 Protein (R&D Cat #6136-EN-010) in DMSO in 96-well clear assay plates.
An eight point serial dilution of drugs was prepared in 10× in assay buffer with the final assay concentrations starting at 10 μM, 3 μM, 1 μM, 0.3 μM and 0 μM. A dilution of DMSO was included as a control. The assay plate was set up as follows with each well in duplicate: 81 μL assay buffer+10 μL ENPP1 inhibitor or DMSO+5 μL Substrate+4 μL Enzyme. Both the enzyme and substrate was added to opposite sides of the well to ensure that there was no interaction until all wells had both components. The plate was then centrifuged gently for 10 seconds, followed by an incubation at 37° C. for 45 minutes. The reaction was quantified by measuring absorbance at 405 nm using an Envision plate reader.
IC50 values are determined using GraphPad Prism 5 software. The data were entered as an X-Y plot into the software as percent inhibition for each concentration of the drug. The concentration values of the drug were log transformed and the nonlinear regression was carried out using the “sigmoidal dose-response (variable slope)” option within the GraphPad software to model the data and calculate IC50 values. The IC50 values reported are the concentration of drug at which 50% inhibition was reached.

Recombinant CndP (CdnP) = Recombinant CndP (CdnP) (Mycobacterium tuberculosis (strain ATCC 25618 / H37Rv), UniProt P71615); assay: CndP Assay with BPNPP substrate; format: biochemical, M. tuberculosis; details: pH 8.0, 37° C. 45 minutes, read-out: Inhibition of CdnP IC50
Sequence of Recombinant CndP (CdnP) (P71615 whole entry, looked up): as the sequence (P71615 whole entry, looked up) above

[2] = substrate thymidine 5′-monophosphate p-nitrophenol ester, pH 9.0, 37° C. 45 minutes, read-out: Inhibition of ENPP1 IC50

Compound | inhibition at 1 µM (Recombinant CdnP Protein; 1 μM compound) | inhibition at 10 µM (Recombinant CdnP Protein; 10 μM compound) | inhibition at 100 µM (Recombinant CdnP Protein) | IC50 [1] | IC50 (Recombinant CndP (CdnP)) | IC50 [1, 2]
COc1cc2ncnc(N3CCC[C@@H](CP(=O)(O)O)CC3)c2cc1OC [Compound I-1, (R)-((1-(6,7-dimethoxyquinazolin-4-yl)azepan-4-yl)methyl)phosphonic acid] | < 20% | > 50% | > 50% | 10 to 100 nM | 100 to 1000 nM | 
COc1cc2ncnc(N3CCC[C@H](CP(=O)(O)O)CC3)c2cc1OC [Compound I-2, (S)-((1-(6,7-dimethoxyquinazolin-4-yl)azepan-4-yl)methyl)phosphonic acid] |  |  |  |  | 100 to 1000 nM | > 100 nM
COc1cc2ncnc(N3CCCC(CP(=O)(O)O)CC3)c2cc1OC (stereo not drawn) [Compound I-3, ((1-(6,7-dimethoxyquinazolin-4-yl)azepan-4-yl)methyl)phosphonic acid] |  |  |  | 10 to 100 nM | 100 to 1000 nM | 
COc1cc2ncnc(N3CCCC(CCP(=O)(O)O)CC3)c2cc1OC (stereo not drawn) [Compound I-4, (2-(1-(6,7-dimethoxyquinazolin-4-yl)azepan-4-yl)ethyl)phosphonic acid] |  |  |  |  | < 100 nM | < 10 nM
COc1cc2ncnc(N3CCCC(CCCP(=O)(O)O)CC3)c2cc1OC (stereo not drawn) [Compound I-5, (3-(1-(6,7-dimethoxyquinazolin-4-yl)azepan-4-yl)propyl)phosphonic acid] |  |  |  | 10 to 100 nM | 100 to 1000 nM | 
COc1cc2ncnc(N3CCCN(CP(=O)(O)O)CC3)c2cc1OC [Compound I-6, ((4-(6,7-dimethoxyquinazolin-4-yl)-1,4-diazepan-1-yl)methyl)phosphonic acid] |  |  |  |  | > 1000 nM | > 100 nM
COc1cc2ncc(C#N)c(N3CCCC(CP(=O)(O)O)CC3)c2cc1OC (stereo not drawn) [Compound I-7, ((1-(3-cyano-6,7-dimethoxyquinolin-4-yl)azepan-4-yl)methyl)phosphonic acid] |  |  |  |  | < 100 nM | < 10 nM
COc1cccc2c(N3CCCC(CP(=O)(O)O)CC3)ccnc12 (stereo not drawn) [Compound I-8, ((1-(8-methoxyquinolin-4-yl)azepan-4-yl)methyl)phosphonic acid] |  |  |  |  | 100 to 1000 nM | > 100 nM
COc1cccc2c(N3CCCC(CP(=O)(O)O)CC3)ncnc12 (stereo not drawn) [Compound I-9, ((1-(8-methoxyquinazolin-4-yl)azepan-4-yl)methyl)phosphonic acid] |  |  |  |  | 100 to 1000 nM | < 10 nM
COc1cc2ncnc(N3CCCC(CP(=O)(OCOC(=O)C(C)C)OCOC(=O)C(C)C)CC3)c2cc1OC (stereo not drawn) [Compound I-10, ((((1-(6,7-dimethoxyquinazolin-4-yl)azepan-4-yl)methyl)phosphoryl)bis(oxy))bis(methylene) bis(2-methylpropanoate)] |  |  |  |  | > 1000 nM | > 100 nM
COc1cc2ncnc(-c3ccc(CP(=O)(O)O)nc3)c2cc1OC [II-1, ((5-(6,7-dimethoxyquinazolin-4-yl)pyridin-2-yl)methyl)phosphonic acid] |  |  | > 50% |  |  | 
